Source: PMC3049593 (British Journal of Cancer, 2011)

How the values were obtained:
[1] = tumour and tissue pharmacokinetics of [3H]-PG545 in Hep3b tumour-bearing mice; type: in vivo; conditions: for tumour AUC0-t / tumour Cmax: model independent analysis; for Kt, rate constant of uptake from the tumor / t½b / t½t: one compartment model
Excerpt: (§1) Analysis of the tumour [^3H]-PG545 concentration vs time data required use of a more physiologically based PK model such that tumour concentrations were estimated from the tumour mass being perfused with blood containing [^3H]-PG545 and where the blood [^3H]-PG545 concentration changed over time.
Table S1 – Pharmacokinetic analysis of mean tumour [3H]-PG545 concentrations in […]
Model Independent Analysis of Mean Tumor [3H]-PG545 Conc. Versus Time Data Parameter First Dose Second Dose Third Dose Notes: Cmax and Tmax were derived from visual inspection of the data following Cmax (µ g/ml) 37 45 44 s.c. administration of up to three doses of […]
One Compartment Model derived from Mean Tumor [3H]-PG545 Conc. Versus Time Data Parameter First Dose Second Dose Third Dose Notes: Based on assumptions including - 1) All processes are linear with no […]
timeframe of the experiment.
3) Tumor [3H]-PG545 conc is driven by the blood conc of [3H]-PG545 t½t (h) 15.7 15.4 16.3 4) Rate of uptake is proportional to blood […]
5) Rate of return from tumor to blood is proportional to tumor conc.
Kb is the rate constant of uptake into the tumor, in h-1
Kt is the rate constant of uptake from the tumor, in h-1 […]
(§2) Pharmacokinetic sampling and analysis
(§3) Samples were collected from three animals at each of four time points – 12 hours, 24 hours, 48 hours and 96 hours post-treatment. At each of these times, whole blood was collected by cardiac puncture and tumours were excised. After collection, 0.2 mL of whole blood was added to a glass scintillation vial to which 1 mL Solvable was added.
(§4) Samples were incubated for one hour at 55-60°C. 0.1 mL of 0.1 M EDTA-di-sodium salt solution and 0.3 mL to 0.5 mL of 30% hydrogen peroxide in 0.1 mL aliquots were added to the sample. Samples were gently agitated between additions to allow reaction foaming to subside. Samples were incubated for 30 minutes at room temperature. Vials were capped tightly and incubated again at 55 – 60 °C fo r 1 hour. Samples were cooled to room temperature and 15 mL of ULTIMA Gold added.
(§5) For tumour samples, 100 mg of tissue was placed in a 20 mL glass scintillation vial and 2 mL of Solvable added. The samples were incubated at 50 - 60 °C for 1 hour with occasional swirling. Samples were cooled to room temperature and for tumours, 0.3 mL of 30% hydrogen peroxide in three aliquots of 0.1 mL were added. The samples were again incubated at 50 - 60 °C for 1 hour with occasional swirling. Tumours samples were […]
(§6) then treated with 15 mL of ULTIMA Gold. To count radioactivity, a Tri-Carb 2800TR liquid scintillation counter from PerkinElmer was used at the Institute of Medical and Veterinary Science (Adelaide, Australia). All parameters were calculated using the QuantaSmart software package. Where DPM values were missing, the following procedure was performed. Efficiency was calculated by generating an efficiency curve using complete samples (where efficiency = Counts Per Minute/Disintegrations Per Minute), and plotted these values against the provided corresponding transformed spectral index of external standard (tSIE) values.
(§7) The pharmacokinetic parameters, Cmax (maximum plasma concentration), Tmax (time of maximum plasma concentration), kelim (terminal elimination rate constant), t½ (half-life), and AUC (area under the concentration versus time curve) were derived from the blood [3H]-PG545 concentration versus time data using model independent methods. In addition, a linear pharmacokinetic model comprising mono-exponential absorption and bi-exponential disposition and elimination was used to simultaneously model the mean blood concentration versus time data for [3H]-PG545 and the following pharmacokinetic parameters, Cmax and Tmax, t½, AUC0-t and AUC0-∞ for [3H]-PG545 were estimated.
(§8) Analysis of the tumour [3H]-PG545 concentration versus time data required use of a more physiologically-based pharmacokinetic model such that tumour concentrations were estimated on the basis of the tumour mass being perfused with blood containing [3H]- […]

[2] = blood pharmacokinetics of [3H]-PG545 in Hep3b tumour-bearing mice; type: in vivo; conditions: for AUC0−t / Cmax / Tmax / t½: blood, 20 mg kg^−1 every 96 h
Description: as §1, with “time. […]” for “time.”
as §2, §3, §4, §5, §6, §7, §8
(Applied Biosystems) preceded by a Spark Symbiosis Direct On-line Solid Phase Extraction system. Briefly, using a deep-well 96-well plate, 100 µL plasma was mixed with 10 µL standard solution (or water for unknowns) plus 10 µL internal standard solution (PG562 at 100 µg/mL (deionised water for double blank)).This was then mixed for at least 1 min (Ratek Platform Shaker) and incubated at room temperature for 20 mins prior to addition of 25 µL SDS solution (10 mg SDS in 1 mL deionised water) + 75 µL CHAPS solution (50 mg CHAPS in 1 mL deionised water) and 50 µL Proteinase K solution (10 mg Proteinase K in 1 mL 5 mM CaCl2). Following a mixing step this was incubated at 37°C for 2.5 hours prior to addition of 250 µL deionised water and placed into the Spark Symbiosis system.
The Tmax and Cmax on each sampling day were determined for each dose level by visual inspection of the mean data. […]

Hep3b2.1-7 tumours = assay: orthotopic Hep3b2.1-7 human liver cancer model; type: in vivo, mice; conditions: 30 mg kg^−1 daily
Description: (§9) In the orthotopic Hep3b2.1-7 human liver cancer model, treatment of mice (n=10) began 14 days after inoculation of 2.5 × 10^6 cells. […] To initiate tumour xenografts, MDA-MB-231, PC3, Cal27 and HepG2 cells were injected s.c. into nude mice (n=8) at 4, 5, 2 and 2 × 10^7 cells ml^−1, respectively. […] In the B16F0 lung metastasis model, 2 × 10^5 cells were injected via the tail vein of C57Bl6 mice (n=8). […] Surface lung macrometastases were counted for each group (n=9) upon study termination. In the intrasplenic HT-29 xenograft model, 1 × 10^6 cells in 100 μl were injected into the spleen. […] Solid tumours were measured in two dimensions (length and width) and the tumour volume (cm^3) was calculated using the equation: V=length × width^2 × π/6. The anti-tumour activity was expressed as percent tumour growth inhibition (%TGI). Further details are available in Supplementary Methods. […]
In the Hep3b2.1-7 model, the cells resuspended in HBSS:MatrigelTM (1:1, v/v) to a final concentration of 5 x 10^8 cells/mL were inoculated following an incision into the skin directly over the liver to expose the main lobe of the liver. The needle was introduced into the main lobe of the liver, where 2.5 x 106 Hep3b2.1-7 cells (in 5 µL with 50% Matrigel) were discharged. The treatment of mice began 24 days after inoculation of the […]
either a once or twice weekly dosing schedule (see figure legends for dose schedules in each study) for up to three weeks. […]
(§10) efficacy/PK study) using either a once or twice weekly dosing schedule (see figure legends for dose schedules in each study) for up to three weeks. […]
(§11) In relevant models, solid tumours were measured in two dimensions (length and width) and the tumour volume (mm3) calculated using the equation V = length × width2 × π/6.The anti-tumour activity was assessed by the comparison of the mean tumour volume of the treated groups to the mean tumour volume of the control group and expressed as the percent Tumour Growth Inhibition (TGI) using the equation:
(§12) %TGI = (1-((VendPG545 - VstartPG545) / (VendControl - VstartControl)))*100 VendPG545 = Ending Tumour Volume of PG545-treated animal
(§13) VstartPG545 = Starting Tumour Volume of PG545-treated animal
(§14) VendControl = Ending Tumour Volume of Control animal
(§15) VstartControl = Starting Tumour Volume of Control animal […]
(§16) After collection, 0.2 mL of […]
(§17) whole blood was added to a glass scintillation vial to which 1 mL Solvable was added.
as §4, with “Vials were capped tightly and incubated again at 55 – 60 °C fo r 1 hour. Samples were cooled to room temperature and 15 mL of ULTIMA Gold added.” left out

[3] = test system: LL/2 tumours and lung metastases; assay: syngeneic Lewis Lung Carcinoma (LL/2) tumour growth and spontaneous metastasis model; type: in vivo, mice
Description: as §9, §10
In the LL/2 mouse model, treatment of mice commenced on the day of inoculation (Day 0). Mice inoculated subcutaneously were treated with either Vehicle Control […]
once weekly or Sorafenib (60mg/kg, once daily, p.o.). The treatments were continued for three weeks. The lungs were excised from all mice at the time of culling for metastasis […]
count determination. […]
as §11, §12, §13, §14, §15, §16, §17, §4, §5

[4] = 20 mg kg^−1 s.c. every 96 h, three doses

[3H][C@H]1[C@H](O[C@@H]2O[C@H](COS(=O)(=O)[O-])[C@@H](O[C@H]3O[C@H](COS(=O)(=O)[O-])[C@@H](O[C@H]4O[C@H](COS(=O)(=O)[O-])[C@@H](O[C@H]5O[C@H](COS(=O)(=O)[O-])[C@@H](OS(=O)(=O)[O-])[C@H](OS(=O)(=O)[O-])[C@H]5OS(=O)(=O)[O-])[C@H](OS(=O)(=O)[O-])[C@H]4OS(=O)(=O)[O-])[C@H](OS(=O)(=O)[O-])[C@H]3OS(=O)(=O)[O-])[C@H](OS(=O)(=O)[O-])[C@H]2OS(=O)(=O)[O-])C[C@@H]2CC[C@H]3[C@@H]4CC[C@H]([C@H](C)CCCC(C)C)[C@@]4(C)CC[C@@H]3[C@@]2(C)[C@H]1[3H].[Na+].[Na+].[Na+].[Na+].[Na+].[Na+].[Na+].[Na+].[Na+].[Na+].[Na+].[Na+].[Na+] [[^3H]-PG545]
Cmax in kidney ([1]; following a single dose): 39 µg/g
Cmax in liver ([1]; following a single dose): 106 µg/g
tumour AUC0-t ([1]; first dose): 2800 µ g.h/g
tumour Cmax ([1]; first dose): 37 µ g/ml
tumour AUC0-t ([1]; second dose): 3662 µ g.h/g
tumour Cmax ([1]; second dose): 45 µ g/ml
tumour AUC0-t ([1]; third dose): 3304 µ g.h/g
tumour Cmax ([1]; third dose): 44 µ g/ml
Kt, rate constant of uptake from the tumor ([1]; first dose): 0.0441 h⁻¹
t½b ([1]; first dose): 12.8 h
t½t ([1]; first dose): 15.7 h
Kt, rate constant of uptake from the tumor ([1]; second dose): 0.0449 h⁻¹
t½b ([1]; second dose): 13.3 h
t½t ([1]; second dose): 15.4 h
Kt, rate constant of uptake from the tumor ([1]; third dose): 0.0425 h⁻¹
t½b ([1]; third dose): 16.5 h
t½t ([1]; third dose): 16.3 h
t½b, uptake from the bloodstream into the tumour (range over doses) ([1]; one-compartment PK model): 12.8 to 16.5 h
tumour Cmax (range over doses) ([1]; tumour tissue, 20 mg kg^−1 s.c. every 96 h, three doses): 36.6 to 45.1 µg/g
tumour Tmax ([1]; tumour tissue, one dose (first dose)): 12 h
tumour Tmax ([1]; tumour tissue, three doses (third dose)): ≥ 96 h
tumour Tmax ([1]; tumour tissue, two doses (second dose)): 48 h
mean blood Cmax (range over doses) [2, 4]: 25900 to 29000 ng/mL
mean blood Tmax (range over doses) [2, 4]: 2 to 6 h
mean elimination half-life (t½) in blood ([2]; 20 mg kg^−1 s.c., up to three bolus doses at 96 h intervals): > 50 h
AUC0−t ([2]; first dose): 991 µg·h/mL
Cmax ([2]; first dose): 28000 ng/mL
Tmax ([2]; first dose): 4 h
t½ ([2]; first dose): 65 h
AUC0−t ([2]; second dose): 1208 µg·h/mL
Cmax ([2]; second dose): 26000 ng/mL
Tmax ([2]; second dose): 2 h
AUC0−t ([2]; third dose): 1556 µg·h/mL
Cmax ([2]; third dose): 29000 ng/mL
Tmax ([2]; third dose): 6 h
t½ ([2]; third dose): 117 h

CNC(=O)c1cc(Oc2ccc(NC(=O)Nc3ccc(Cl)c(C(F)(F)F)c3)cc2)ccn1 [sorafenib, reference compound]
TGI (Hep3b2.1-7 tumours): 58%
effect on metastasis ([3]; 60 mg kg^−1 daily): no effect on metastasis
TGI (primary tumour) ([3]; 60 mg kg^−1 qd): 44%
